Columns and labels:
[1] = 0.1 mg/kg FFA twice daily with stiripentol plus clobazam, with or without valproate, steady state; ref Prescribing information: https://www.fintepla.com/; cited from earlier work
OAT3 = target: T1, OAT3 (Homo sapiens, UniProt Q8TCC7); assay: Transporter substrate determination, uptake in HEK293-OAT3 cells; format: in vitro ADME; conditions: for Maximum Ratio (uptake in transporter‐expressing cells to empty‐vector control cells): HEK293‐OAT3, 0.1, 1, 10 µM, threshold ≥2‐fold; for substrate of the transporter: OAT3
T1 construct: host or cells: HEK293
T1 sequence (Q8TCC7 1-542): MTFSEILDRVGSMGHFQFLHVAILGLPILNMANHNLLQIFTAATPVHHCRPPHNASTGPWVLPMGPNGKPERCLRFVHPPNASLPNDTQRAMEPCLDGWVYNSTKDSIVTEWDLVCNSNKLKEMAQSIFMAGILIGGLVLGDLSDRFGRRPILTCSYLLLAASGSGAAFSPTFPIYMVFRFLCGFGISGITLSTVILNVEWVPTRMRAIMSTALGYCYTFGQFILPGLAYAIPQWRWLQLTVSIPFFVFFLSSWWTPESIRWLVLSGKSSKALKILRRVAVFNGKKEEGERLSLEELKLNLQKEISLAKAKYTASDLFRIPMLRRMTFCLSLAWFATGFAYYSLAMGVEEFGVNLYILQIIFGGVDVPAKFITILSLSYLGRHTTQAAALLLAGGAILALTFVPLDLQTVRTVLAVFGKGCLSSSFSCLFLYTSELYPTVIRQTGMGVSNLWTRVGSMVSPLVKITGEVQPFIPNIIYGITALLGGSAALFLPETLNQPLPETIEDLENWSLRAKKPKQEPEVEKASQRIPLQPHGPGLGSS
Procedure: (§1) LC‐MS/MS analyses to assess metabolic stability and identify the transporter substrate were performed using an API 4000 QTRAP mass spectrometer (SCIEX, Framingham, MA) with electrospray ionization in positive mode. Chromatography was performed using an Atlantis dC18 analytical column (100 × 2.1 mm, 5 µm; Waters Corporation, Milford, MA). Mobile phases were 0.2% v/v formic acid in water and 0.2% v/v formic acid in acetonitrile. For metabolic stability experiments, FFA and metabolites were eluted at a flow rate of 0.6 mL/min, with a linear gradient of 20%−80% acetonitrile from 0.30−2.0 min. For transporter substrate experiments, the gradient was slightly modified to achieve suitable chromatography. The mass transitions monitored were 232.0 > 159.0 for FFA and 348.0 > 330.0 for 1ʹ‐OH‐midazolam‐d4 internal standard.
(§2) FFA and nFFA were evaluated as substrates of the transporters breast cancer resistance protein (BCRP), organic anion transporter (OAT)1, OAT3, organic cation transporter (OCT)2, MATE1, MATE2‐K, and P‐glycoprotein multidrug transporter (P‐gp; also known as MDR1 and ABCB1), according to published methods.[25], [26], [27], [28], [29] Madin‐Darby canine kidney (MDCKII)‐BCRP cells (Netherlands Cancer Institute, Amsterdam, Netherlands) or human embryonic kidney (HEK)293 cells transfected with other transporters (Sekisui Medical Co., Ltd., Tokyo, Japan) were used. Transporter‐transfected and control cells were incubated with FFA or nFFA (0.1, 1, or 10 μM), and the amount of FFA and nFFA accumulated in the cells was measured by LC‐MS/MS as described above. The accumulation of positive control substrates in the presence and absence of an inhibitor served as a positive control for transporter function. […] BCRP substrate determination was made by bi‐directional permeability across MDCKII‐BCRP and control cells cultured on 24‐well transwell plates. Incubation medium containing probe substrate was added. Ten minutes later, transepithelial electrical resistance (TEER) was recorded and cells were preincubated at 37 ± 2°C for 30−60 min before FFA or nFFA or positive control substrate with the solvent control or positive control inhibitor was added to the donor (apical) chamber. […] Samples containing FFA, nFFA, or probe substrate were mixed with internal standard and analyzed by LC‐MS/MS. […] An aliquot was added to 96‐well plate containing scintillation fluid that was analyzed by a MicroBeta^2 scintillation counter (Perkin Elmer, Waltham, MA). Protein concentration was determined by a bicinchoninic acid (BCA) protein assay according to the manufacturer’s protocol (Thermo Fisher Scientific, Waltham, MA). Non‐radiolabeled compounds were resuspended in a 50:50 v/v methanol:water solution containing internal standard and were analyzed by LC‐MS/MS. […]

[2] = clobazam, and valproate, healthy subjects, cited from earlier work
OCT2 = target: T2, OCT2 (Homo sapiens, UniProt O15244); assay: Transporter substrate determination, uptake in HEK293-OCT2 cells; format: in vitro ADME; conditions: for Maximum Ratio (uptake in transporter‐expressing cells to empty‐vector control cells): HEK293‐OCT2, 0.1, 1, 10 µM, threshold ≥2‐fold; for substrate of the transporter: OCT2
T2 construct: host or cells: HEK293
T2 sequence (O15244 1-555): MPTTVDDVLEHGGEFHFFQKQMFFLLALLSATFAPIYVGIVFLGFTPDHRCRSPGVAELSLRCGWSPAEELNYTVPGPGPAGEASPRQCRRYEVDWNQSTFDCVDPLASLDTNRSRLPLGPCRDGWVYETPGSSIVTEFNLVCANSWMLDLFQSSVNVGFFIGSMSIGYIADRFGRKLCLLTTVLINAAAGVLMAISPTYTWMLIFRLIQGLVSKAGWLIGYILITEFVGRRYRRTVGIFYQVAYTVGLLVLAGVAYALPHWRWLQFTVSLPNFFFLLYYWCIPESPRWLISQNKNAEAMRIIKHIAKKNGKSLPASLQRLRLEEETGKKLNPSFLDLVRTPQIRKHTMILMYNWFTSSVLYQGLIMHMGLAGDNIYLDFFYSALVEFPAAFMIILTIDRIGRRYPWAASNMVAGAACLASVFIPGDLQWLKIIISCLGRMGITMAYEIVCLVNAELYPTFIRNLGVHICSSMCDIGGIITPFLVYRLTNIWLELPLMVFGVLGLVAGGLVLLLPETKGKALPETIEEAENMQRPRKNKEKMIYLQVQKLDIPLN
Procedure: as §1, §2

Row | Compound | increase in FFA AUC0‐24 [1] [%] | Maximum Ratio (uptake in transporter‐expressing cells to empty‐vector control cells) (OAT3) | substrate of the transporter (OAT3) | effect on Cmax, AUC0‐t, and AUC0‐∞ of FFA ([2]; co‐administered with stiripentol) | Maximum Ratio (uptake in transporter‐expressing cells to empty‐vector control cells) (OCT2) | substrate of the transporter (OCT2) | effect on Cmax and AUC0‐t of nFFA ([2]; FFA co‐administered with stiripentol)
1 | CCNC(C)Cc1cccc(C(F)(F)F)c1 (racemic) [FFA, (RS)‐ethyl (α‐methyl‐3‐trifluoromethylphenethyl)amine] | 166 | 1.15 | not substrates | increasing | 1.09 | not substrates | 
2 | CC(N)Cc1cccc(C(F)(F)F)c1.Cl (centres unmarked) [nFFA, 1‐(3‐(trifluoromethyl)phenyl)propan‐2‐amine hydrochloride] |  | 1.74 | not substrates |  | 1.16 | not substrates | reduced

Reference: paper PMC9124820, “In vitro evaluation of fenfluramine and norfenfluramine as victims of drug interactions” (Pharmacology Research & Perspectives, 2022)
